{"source": "ChEMBL document CHEMBL4507291", "about": "(2021)", "key": {"[1]": {"biological_target": "Sigma intracellular receptor 2 (Homo sapiens, UniProt Q5BJF2)", "sequence (Q5BJF2 whole entry)": "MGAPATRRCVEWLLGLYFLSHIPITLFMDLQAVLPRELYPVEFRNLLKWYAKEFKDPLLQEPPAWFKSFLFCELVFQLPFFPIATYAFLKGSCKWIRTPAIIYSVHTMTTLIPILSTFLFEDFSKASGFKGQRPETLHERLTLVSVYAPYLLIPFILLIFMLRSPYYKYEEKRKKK", "assay": "GPCRScan assay: inhibition of Sigma 2", "design": "radioligand conc. used [nm] 5.0, parental cells HEKT"}, "[2]": {"biological_target": "AP2-associated protein kinase 1 (Homo sapiens) (UniProt Q2M2I8)", "sequence (Q2M2I8 whole entry, looked up)": "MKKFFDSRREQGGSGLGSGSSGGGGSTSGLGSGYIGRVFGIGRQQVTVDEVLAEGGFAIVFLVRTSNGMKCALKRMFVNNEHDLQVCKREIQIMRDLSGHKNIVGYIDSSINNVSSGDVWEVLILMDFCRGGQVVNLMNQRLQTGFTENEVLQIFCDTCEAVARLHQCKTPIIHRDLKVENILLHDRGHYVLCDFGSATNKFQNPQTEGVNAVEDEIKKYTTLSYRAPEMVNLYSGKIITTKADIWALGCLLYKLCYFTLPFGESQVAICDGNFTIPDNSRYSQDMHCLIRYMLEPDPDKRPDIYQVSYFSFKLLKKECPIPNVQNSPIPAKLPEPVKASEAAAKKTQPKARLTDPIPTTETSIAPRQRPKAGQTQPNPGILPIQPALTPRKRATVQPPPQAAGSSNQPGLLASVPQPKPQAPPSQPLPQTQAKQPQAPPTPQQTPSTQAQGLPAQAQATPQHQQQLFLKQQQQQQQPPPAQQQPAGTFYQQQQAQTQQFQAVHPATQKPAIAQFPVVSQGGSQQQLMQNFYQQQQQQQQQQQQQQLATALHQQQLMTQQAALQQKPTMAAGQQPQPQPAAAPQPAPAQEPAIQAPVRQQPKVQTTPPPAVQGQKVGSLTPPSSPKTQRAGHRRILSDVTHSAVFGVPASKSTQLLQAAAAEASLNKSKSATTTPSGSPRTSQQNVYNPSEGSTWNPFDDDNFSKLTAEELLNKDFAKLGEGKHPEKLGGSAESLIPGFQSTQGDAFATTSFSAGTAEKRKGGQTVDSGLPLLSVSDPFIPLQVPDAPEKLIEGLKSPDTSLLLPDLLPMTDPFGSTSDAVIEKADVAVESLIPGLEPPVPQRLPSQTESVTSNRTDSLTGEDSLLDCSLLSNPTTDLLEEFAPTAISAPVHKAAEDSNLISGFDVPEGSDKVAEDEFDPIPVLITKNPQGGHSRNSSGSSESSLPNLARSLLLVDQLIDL"}, "[3]": {"biological_target": "T1, Cytoplasmic tyrosine-protein kinase BMX (Homo sapiens) (UniProt P51813)", "T1 sequence (whole entry)": "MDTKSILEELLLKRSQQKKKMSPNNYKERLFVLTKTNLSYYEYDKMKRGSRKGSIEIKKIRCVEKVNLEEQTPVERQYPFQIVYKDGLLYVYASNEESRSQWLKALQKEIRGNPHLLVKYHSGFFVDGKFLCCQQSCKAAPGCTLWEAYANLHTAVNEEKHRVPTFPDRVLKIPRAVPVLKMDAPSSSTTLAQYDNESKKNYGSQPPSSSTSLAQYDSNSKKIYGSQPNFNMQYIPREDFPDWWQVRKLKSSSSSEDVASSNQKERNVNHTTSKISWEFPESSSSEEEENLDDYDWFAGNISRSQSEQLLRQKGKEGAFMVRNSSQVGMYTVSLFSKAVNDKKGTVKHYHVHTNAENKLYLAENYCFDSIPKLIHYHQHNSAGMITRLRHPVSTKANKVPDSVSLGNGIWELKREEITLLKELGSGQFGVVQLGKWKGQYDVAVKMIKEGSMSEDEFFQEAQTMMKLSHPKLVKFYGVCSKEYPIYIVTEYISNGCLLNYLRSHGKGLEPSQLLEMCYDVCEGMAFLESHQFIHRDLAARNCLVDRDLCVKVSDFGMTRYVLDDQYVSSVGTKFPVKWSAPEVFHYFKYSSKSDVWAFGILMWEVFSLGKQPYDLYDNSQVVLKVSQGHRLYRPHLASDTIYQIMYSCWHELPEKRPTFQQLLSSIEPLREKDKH"}, "[4]": {"biological_target": "Vascular endothelial growth factor receptor 1 (Homo sapiens) (UniProt P17948)", "sequence (P17948 whole entry)": "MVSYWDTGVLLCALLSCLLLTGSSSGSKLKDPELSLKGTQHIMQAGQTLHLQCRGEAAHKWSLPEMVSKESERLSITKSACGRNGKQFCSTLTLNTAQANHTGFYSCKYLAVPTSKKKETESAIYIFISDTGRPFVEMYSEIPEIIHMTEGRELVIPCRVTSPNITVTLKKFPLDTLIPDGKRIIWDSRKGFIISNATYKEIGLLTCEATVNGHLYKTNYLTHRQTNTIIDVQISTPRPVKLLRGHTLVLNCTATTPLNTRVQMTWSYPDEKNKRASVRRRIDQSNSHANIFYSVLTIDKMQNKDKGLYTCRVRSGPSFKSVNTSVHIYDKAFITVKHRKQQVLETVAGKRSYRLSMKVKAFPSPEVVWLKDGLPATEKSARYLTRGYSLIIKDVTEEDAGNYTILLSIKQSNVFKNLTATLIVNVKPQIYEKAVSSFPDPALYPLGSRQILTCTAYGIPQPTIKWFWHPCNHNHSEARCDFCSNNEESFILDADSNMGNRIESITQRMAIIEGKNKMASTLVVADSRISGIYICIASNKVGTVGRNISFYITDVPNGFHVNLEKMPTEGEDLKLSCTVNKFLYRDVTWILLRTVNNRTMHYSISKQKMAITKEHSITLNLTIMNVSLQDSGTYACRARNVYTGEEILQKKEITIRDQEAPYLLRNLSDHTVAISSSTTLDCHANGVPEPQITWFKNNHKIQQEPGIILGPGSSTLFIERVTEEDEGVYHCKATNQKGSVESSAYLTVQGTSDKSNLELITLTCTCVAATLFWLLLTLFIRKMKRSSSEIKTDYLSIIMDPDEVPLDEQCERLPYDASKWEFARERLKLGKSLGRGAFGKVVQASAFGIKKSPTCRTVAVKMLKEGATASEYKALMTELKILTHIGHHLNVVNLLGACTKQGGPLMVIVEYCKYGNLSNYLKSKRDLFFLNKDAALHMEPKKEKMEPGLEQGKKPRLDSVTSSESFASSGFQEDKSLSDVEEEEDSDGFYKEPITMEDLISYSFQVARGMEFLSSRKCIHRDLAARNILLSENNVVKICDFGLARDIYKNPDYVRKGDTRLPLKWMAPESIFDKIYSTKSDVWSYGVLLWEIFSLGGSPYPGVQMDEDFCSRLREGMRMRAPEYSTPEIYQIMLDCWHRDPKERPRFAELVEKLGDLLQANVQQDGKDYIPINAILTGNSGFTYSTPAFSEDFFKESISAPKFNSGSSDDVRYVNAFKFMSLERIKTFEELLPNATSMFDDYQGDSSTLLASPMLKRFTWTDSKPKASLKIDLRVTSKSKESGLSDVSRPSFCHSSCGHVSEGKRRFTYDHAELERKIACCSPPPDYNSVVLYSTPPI"}, "[5]": {"system": "T2, Receptor-type tyrosine-protein kinase FLT3 (Homo sapiens), P36888 [D835Y]", "T2 sequence (whole entry)": "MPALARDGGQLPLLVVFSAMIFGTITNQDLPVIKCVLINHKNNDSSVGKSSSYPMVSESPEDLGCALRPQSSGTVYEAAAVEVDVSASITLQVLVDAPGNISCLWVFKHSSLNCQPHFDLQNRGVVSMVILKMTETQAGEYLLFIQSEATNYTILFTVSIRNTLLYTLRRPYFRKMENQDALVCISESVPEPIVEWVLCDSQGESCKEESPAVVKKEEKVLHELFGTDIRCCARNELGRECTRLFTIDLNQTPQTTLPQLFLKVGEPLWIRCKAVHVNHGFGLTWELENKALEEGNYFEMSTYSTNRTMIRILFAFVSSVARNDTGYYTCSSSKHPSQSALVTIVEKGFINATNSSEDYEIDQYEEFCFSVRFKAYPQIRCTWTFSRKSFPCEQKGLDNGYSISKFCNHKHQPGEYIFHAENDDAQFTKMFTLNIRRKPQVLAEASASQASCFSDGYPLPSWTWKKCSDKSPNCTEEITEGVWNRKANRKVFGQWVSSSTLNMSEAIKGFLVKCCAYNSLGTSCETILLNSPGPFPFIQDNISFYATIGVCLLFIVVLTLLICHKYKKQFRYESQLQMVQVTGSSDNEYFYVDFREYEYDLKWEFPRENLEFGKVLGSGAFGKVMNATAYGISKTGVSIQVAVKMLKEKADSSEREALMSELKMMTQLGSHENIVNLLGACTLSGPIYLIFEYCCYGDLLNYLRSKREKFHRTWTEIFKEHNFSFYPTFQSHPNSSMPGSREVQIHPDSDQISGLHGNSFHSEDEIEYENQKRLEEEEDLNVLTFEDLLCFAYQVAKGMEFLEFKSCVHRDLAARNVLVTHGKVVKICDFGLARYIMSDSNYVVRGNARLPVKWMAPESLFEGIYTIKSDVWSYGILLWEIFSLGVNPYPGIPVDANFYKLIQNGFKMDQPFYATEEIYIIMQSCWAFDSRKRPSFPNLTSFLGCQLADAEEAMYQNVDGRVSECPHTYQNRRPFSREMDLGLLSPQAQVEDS"}, "[6]": {"biological_target": "Serine/threonine-protein kinase mTOR (Homo sapiens) (UniProt P42345)"}, "[7]": {"biological_target": "T3, Serine/threonine-protein kinase Nek2 (Homo sapiens) (UniProt P51955)", "T3 sequence (whole entry)": "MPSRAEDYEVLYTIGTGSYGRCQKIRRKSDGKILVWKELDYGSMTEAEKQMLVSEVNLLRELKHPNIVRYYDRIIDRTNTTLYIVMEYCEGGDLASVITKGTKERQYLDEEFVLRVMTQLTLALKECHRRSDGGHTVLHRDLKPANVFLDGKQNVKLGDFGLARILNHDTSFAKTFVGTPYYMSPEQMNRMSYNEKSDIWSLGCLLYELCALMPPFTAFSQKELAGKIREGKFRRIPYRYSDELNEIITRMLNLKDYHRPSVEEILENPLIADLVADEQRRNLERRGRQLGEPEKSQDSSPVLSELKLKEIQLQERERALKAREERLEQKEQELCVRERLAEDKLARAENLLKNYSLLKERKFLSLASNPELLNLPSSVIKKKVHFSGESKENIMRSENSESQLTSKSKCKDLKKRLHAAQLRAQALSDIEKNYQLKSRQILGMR"}, "[8]": {"biological_target": "Serine/threonine-protein kinase PRP4 homolog (Homo sapiens) (UniProt Q13523)", "sequence (Q13523 whole entry)": "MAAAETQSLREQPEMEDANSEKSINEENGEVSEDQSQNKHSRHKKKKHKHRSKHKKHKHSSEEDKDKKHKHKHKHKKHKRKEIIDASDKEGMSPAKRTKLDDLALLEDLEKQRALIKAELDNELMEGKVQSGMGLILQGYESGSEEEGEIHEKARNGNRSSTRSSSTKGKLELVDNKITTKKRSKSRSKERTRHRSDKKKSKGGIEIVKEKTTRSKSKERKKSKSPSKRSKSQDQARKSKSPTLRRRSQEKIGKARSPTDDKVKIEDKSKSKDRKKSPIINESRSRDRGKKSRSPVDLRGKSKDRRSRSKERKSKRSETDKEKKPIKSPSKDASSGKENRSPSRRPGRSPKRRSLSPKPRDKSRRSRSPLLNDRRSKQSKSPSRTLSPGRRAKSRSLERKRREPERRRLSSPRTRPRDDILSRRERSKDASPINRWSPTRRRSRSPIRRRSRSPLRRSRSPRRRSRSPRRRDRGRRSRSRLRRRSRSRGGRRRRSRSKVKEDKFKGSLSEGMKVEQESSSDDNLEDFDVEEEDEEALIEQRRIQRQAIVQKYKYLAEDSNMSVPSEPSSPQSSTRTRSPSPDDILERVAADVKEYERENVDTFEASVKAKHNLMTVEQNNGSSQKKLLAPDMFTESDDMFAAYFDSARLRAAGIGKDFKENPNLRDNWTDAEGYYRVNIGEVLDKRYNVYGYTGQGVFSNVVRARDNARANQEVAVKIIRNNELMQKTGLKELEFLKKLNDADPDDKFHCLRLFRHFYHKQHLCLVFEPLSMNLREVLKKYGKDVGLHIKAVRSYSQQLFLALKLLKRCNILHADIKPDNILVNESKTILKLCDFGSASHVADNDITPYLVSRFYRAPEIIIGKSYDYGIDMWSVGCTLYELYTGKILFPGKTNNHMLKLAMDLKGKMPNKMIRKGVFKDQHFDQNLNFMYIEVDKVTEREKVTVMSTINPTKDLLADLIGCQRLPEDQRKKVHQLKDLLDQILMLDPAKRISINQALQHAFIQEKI"}, "[9]": {"biological_target": "Serine/threonine-protein kinase SIK2 (Homo sapiens) (UniProt Q9H0K1)", "sequence (Q9H0K1 whole entry, looked up)": "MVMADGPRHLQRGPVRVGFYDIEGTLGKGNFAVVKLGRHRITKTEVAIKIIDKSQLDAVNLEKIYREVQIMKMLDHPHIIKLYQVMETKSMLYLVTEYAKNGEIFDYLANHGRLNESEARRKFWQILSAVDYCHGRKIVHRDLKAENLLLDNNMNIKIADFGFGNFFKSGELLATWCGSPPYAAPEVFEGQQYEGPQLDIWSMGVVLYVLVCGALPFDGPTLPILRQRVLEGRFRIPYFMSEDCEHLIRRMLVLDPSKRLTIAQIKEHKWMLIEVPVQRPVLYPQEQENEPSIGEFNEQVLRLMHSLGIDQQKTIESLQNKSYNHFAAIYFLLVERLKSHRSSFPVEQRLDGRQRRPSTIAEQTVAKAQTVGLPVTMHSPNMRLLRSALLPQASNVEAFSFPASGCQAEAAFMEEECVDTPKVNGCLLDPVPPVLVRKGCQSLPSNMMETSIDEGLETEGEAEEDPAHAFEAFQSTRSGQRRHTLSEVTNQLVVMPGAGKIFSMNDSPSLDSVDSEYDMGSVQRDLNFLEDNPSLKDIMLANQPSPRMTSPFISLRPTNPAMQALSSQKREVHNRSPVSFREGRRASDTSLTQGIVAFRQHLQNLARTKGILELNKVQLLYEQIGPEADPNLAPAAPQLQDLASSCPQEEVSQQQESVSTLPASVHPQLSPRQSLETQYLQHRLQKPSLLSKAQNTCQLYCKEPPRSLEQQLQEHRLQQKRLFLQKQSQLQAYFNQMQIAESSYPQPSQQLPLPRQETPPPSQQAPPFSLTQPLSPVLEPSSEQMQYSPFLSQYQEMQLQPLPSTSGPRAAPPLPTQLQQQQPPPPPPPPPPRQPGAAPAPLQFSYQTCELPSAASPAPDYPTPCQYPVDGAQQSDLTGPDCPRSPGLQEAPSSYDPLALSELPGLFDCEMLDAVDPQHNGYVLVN"}, "[10]": {"biological_target": "TGF-beta receptor type-2 (Homo sapiens) (UniProt P37173)", "sequence (P37173 whole entry)": "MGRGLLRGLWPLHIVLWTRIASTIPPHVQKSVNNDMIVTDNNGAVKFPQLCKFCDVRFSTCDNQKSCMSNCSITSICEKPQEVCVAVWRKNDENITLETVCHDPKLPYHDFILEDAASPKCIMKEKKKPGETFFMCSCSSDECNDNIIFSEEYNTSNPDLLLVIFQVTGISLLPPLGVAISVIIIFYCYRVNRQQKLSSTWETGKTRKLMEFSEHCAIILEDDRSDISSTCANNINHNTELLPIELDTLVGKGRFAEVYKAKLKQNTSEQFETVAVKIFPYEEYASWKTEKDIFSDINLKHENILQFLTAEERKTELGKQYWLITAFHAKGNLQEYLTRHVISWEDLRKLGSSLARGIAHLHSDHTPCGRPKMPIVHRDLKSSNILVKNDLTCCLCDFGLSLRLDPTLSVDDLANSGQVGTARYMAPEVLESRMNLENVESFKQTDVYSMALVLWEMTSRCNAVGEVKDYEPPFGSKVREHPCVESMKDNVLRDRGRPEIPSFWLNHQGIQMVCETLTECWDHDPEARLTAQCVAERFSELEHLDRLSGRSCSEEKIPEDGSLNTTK"}, "[11]": {"details": "Compound concentration 1000.0 nM"}, "[12]": {"details": "Compound concentration 100.0 nM"}}, "data": [{"smiles": "C[C@@H]1CN(c2cc(-c3nn(C)c4ccc(OC5(C)CC5)cc34)ncn2)C[C@H](C)O1", "note": "[MLi-2-NC]", "values": [{"measurement": "Ki", "setting": "[1]", "result": 1070, "unit": "nM"}, {"measurement": "residual activity", "setting": "[2]; [11]", "result": 84, "unit": "%"}, {"measurement": "residual activity", "setting": "[3]; [11]", "result": 93, "unit": "%"}, {"measurement": "residual activity", "setting": "[4]; [11]", "result": 95, "unit": "%"}, {"measurement": "residual activity", "setting": "[5]; [11]", "result": 100, "unit": "%"}, {"measurement": "residual activity", "setting": "[6]; [11]", "result": 100, "unit": "%"}, {"measurement": "residual activity", "setting": "[7]; [11]", "result": 100, "unit": "%"}, {"measurement": "residual activity", "setting": "[8]; [11]", "result": 100, "unit": "%"}, {"measurement": "residual activity", "setting": "[9]; [11]", "result": 100, "unit": "%"}, {"measurement": "residual activity", "setting": "[10]; [11]", "result": 73, "unit": "%"}]}, {"smiles": "C[C@@H]1CN(c2cc(-c3n[nH]c4ccc(OC5(C)CC5)cc34)ncn2)C[C@H](C)O1", "note": "[MLi-2]", "values": [{"measurement": "Ki", "setting": "[1]", "result": 4600, "unit": "nM"}, {"measurement": "residual activity", "setting": "[2]; [12]", "result": 100, "unit": "%"}, {"measurement": "residual activity", "setting": "[3]; [12]", "result": 80, "unit": "%"}, {"measurement": "residual activity", "setting": "[4]; [12]", "result": 100, "unit": "%"}, {"measurement": "residual activity", "setting": "[5]; [12]", "result": 100, "unit": "%"}, {"measurement": "residual activity", "setting": "[6]; [12]", "result": 99, "unit": "%"}, {"measurement": "residual activity", "setting": "[7]; [12]", "result": 86, "unit": "%"}, {"measurement": "residual activity", "setting": "[8]; [12]", "result": 83, "unit": "%"}, {"measurement": "residual activity", "setting": "[9]; [12]", "result": 87, "unit": "%"}, {"measurement": "residual activity", "setting": "[10]; [12]", "result": 100, "unit": "%"}]}]}
